# Results: ChEMBL document CHEMBL1909046, “DrugMatrix in vitro pharmacology data”
# How the values were obtained:
# [1] = DRUGMATRIX: Calcium Channel Type L, Benzothiazepine radioligand binding (ligand: [3H] Diltiazem); format: cell membranes, Rattus norvegicus, Wistar, Brain, Membrane; conditions: Not Active = under 50% inhibition at 10 µM
# [2] = DRUGMATRIX: beta-Lactamase enzyme inhibition (substrate: Nitrocefin); parameters: species or system Bacillus cereus; conditions: Not Active = under 50% inhibition at 10 µM
# [3] = target: T1, Cholecystokinin receptor type A (Homo sapiens, UniProt P32238); format: cell membranes, Membrane; conditions: 1321-n1; further: in other assays of this panel Not Active means under 50% inhibition at 10 µM
# T1 sequence (P32238 whole entry): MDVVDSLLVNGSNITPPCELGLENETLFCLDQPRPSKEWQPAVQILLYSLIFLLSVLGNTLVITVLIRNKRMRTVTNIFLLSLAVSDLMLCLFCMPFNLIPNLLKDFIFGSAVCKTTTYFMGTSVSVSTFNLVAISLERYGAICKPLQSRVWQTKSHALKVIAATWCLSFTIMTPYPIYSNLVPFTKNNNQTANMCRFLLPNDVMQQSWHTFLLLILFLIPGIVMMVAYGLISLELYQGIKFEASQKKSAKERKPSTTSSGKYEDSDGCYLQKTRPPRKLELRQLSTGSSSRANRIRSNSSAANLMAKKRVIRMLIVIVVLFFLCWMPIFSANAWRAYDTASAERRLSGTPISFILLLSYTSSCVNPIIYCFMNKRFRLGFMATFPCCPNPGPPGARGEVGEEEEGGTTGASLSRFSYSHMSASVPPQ
# [4] = target: T2, Alpha-2A adrenergic receptor (Homo sapiens, UniProt P08913); format: cell membranes, Sf9, Membrane; further: in other assays of this panel Not Active means under 50% inhibition at 10 µM
# T2 sequence (P08913 whole entry): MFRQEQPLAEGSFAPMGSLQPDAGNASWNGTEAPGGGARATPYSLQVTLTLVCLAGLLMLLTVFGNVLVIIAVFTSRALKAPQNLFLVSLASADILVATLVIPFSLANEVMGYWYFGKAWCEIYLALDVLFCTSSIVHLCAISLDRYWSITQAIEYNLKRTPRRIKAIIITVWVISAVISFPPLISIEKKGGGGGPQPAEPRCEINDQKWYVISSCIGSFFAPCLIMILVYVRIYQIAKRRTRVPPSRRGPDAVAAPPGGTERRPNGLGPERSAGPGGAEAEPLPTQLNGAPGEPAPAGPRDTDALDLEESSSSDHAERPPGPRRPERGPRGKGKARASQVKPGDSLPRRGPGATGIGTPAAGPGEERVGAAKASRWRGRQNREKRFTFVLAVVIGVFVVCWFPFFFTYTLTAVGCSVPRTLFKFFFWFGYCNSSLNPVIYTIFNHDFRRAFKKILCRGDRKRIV
# [5] = target: Matrix metalloproteinase-9 (Homo sapiens, UniProt P14780); test: biochemical; format: cell-based;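 further: inhibition of isolated MMP-9 enzyme activity toward a synthetic peptide substrate, from the DrugMatrix protease screening panel; in other assays of this panel Not Active means under 50% inhibition at 10 µM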
# Chain of Matrix metalloproteinase-9 (P14780 whole entry): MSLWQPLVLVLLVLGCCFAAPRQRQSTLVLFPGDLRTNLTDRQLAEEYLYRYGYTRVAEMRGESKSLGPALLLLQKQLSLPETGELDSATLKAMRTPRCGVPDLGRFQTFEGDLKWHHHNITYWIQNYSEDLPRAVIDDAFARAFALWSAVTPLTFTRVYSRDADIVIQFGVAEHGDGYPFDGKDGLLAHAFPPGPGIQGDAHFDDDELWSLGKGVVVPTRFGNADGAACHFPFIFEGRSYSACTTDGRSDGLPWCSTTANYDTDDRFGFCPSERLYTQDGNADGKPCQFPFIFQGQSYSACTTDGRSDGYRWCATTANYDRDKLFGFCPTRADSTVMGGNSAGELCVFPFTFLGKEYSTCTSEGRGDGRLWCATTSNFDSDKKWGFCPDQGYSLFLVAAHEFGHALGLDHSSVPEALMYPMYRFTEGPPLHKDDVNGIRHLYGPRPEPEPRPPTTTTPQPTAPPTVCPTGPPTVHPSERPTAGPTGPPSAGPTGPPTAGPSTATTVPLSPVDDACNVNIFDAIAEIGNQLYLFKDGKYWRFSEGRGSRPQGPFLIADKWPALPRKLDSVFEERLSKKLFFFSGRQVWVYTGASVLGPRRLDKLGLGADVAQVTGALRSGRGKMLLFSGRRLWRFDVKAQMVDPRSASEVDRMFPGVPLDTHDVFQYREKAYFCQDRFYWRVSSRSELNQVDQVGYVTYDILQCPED
# [6] = target: T3, Estrogen receptor (Homo sapiens, UniProt P03372); conditions: sf9; further: in other assays of this panel Not Active means under 50% inhibition at 10 µM
# T3 sequence (P03372 whole entry): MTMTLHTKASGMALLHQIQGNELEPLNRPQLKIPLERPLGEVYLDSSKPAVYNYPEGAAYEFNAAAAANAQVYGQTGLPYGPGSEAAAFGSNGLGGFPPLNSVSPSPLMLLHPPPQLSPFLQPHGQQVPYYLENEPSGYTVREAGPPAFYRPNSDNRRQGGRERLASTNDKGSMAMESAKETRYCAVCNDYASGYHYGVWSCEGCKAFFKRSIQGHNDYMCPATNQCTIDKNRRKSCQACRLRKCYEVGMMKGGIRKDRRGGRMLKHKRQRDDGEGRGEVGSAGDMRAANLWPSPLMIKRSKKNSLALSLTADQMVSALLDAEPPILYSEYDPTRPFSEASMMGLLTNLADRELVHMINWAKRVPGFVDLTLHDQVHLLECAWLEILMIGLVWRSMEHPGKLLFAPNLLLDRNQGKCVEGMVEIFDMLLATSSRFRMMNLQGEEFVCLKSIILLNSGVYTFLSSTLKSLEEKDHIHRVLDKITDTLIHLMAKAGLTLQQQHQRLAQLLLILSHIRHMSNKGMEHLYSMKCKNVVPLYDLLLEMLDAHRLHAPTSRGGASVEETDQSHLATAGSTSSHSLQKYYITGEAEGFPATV
Compound,IC50 [1],Ki [1],IC50 [2],Ki [2],IC50 [3],IC50 ([4]; sf9),IC50 [5],IC50 [6],IC50 ([4]; read-out: IC50) [µM],Ki ([4]; read-out: Ki) [µM],Ki [3],Ki ([4]; sf9),Ki [5],Ki [6]
Nc1cc(N2CCCCC2)nc(N)[n+]1[O-] [MINOXIDIL],Not Active,Not Active,Not Active,Not Active,Not Active,Not Active,Not Active,Not Active,–,–,–,–,–,–
CO[C@H]1/C=C/O[C@@]2(C)Oc3c(C)c(O)c4c(O)c(c(/C=N/N5CCN(C6CCCC6)CC5)c(O)c4c3C2=O)NC(=O)/C(C)=C\C=C\[C@H](C)[C@H](O)[C@@H](C)[C@@H](O)[C@@H](C)[C@H](OC(C)=O)[C@@H]1C [RIFAPENTINE],Not Active,Not Active,Not Active,Not Active,Not Active,Not Active,Not Active,Not Active,–,–,–,–,–,–
CCCCOc1cc(CC2CNC(=O)N2)ccc1OC (configuration not stated) [RO-201724],Not Active,Not Active,Not Active,Not Active,Not Active,Not Active,Not Active,Not Active,–,–,–,–,–,–
O=C(Oc1ccccc1C(=O)O)c1ccccc1O [SALSALATE],Not Active,Not Active,Not Active,Not Active,Not Active,Not Active,Not Active,Not Active,–,–,–,–,–,–
O=C1C(CC[S+]([O-])c2ccccc2)C(=O)N(c2ccccc2)N1c1ccccc1 (configuration not stated) [SULFINPYRAZONE],Not Active,Not Active,Not Active,Not Active,Not Active,Not Active,Not Active,Not Active,–,–,–,–,–,–
NC(=O)N1C(=O)/C(=C(\O)c2cccs2)c2cc(Cl)ccc21 [TENIDAP],Not Active,Not Active,Not Active,Not Active,Not Active,Not Active,Not Active,Not Active,–,–,–,–,–,–
COc1cc2nc(N3CCN(C(=O)C4CCCO4)CC3)nc(N)c2cc1OC (configuration not stated) [TERAZOSIN],Not Active,Not Active,Not Active,Not Active,Not Active,–,Not Active,Not Active,13.8,5.19,–,–,–,–
CS(=O)(=O)c1ccc([C@@H](O)[C@@H](CO)NC(=O)C(Cl)Cl)cc1 [THIAMPHENICOL],Not Active,Not Active,Not Active,Not Active,Not Active,Not Active,Not Active,Not Active,–,–,–,–,–,–
CCN(CC)CCNC(=O)c1cc(S(C)(=O)=O)ccc1OC [TIAPRIDE],Not Active,Not Active,Not Active,Not Active,Not Active,–,Not Active,Not Active,2.08,0.779,–,–,–,–
NC1CCN(c2nc3c(cc2F)c(=O)c(C(=O)O)cn3-c2ccc(F)cc2F)C1 (configuration not stated) [TOSUFLOXACIN],Not Active,Not Active,Not Active,Not Active,Not Active,Not Active,Not Active,Not Active,–,–,–,–,–,–
O=C(Nc1ccc(Br)cc1)c1cc(Br)cc(Br)c1O [TRIBROMSALAN],Not Active,Not Active,Not Active,Not Active,Not Active,Not Active,Not Active,Not Active,–,–,–,–,–,–
CC(c1cc2ccccc2s1)N(O)C(N)=O (configuration not stated) [ZILEUTON],Not Active,Not Active,Not Active,Not Active,Not Active,Not Active,Not Active,Not Active,–,–,–,–,–,–
MANGANESE CHLORIDE ANHYDROUS,Not Active,Not Active,Not Active,Not Active,Not Active,Not Active,Not Active,Not Active,–,–,Not Active,Not Active,Not Active,Not Active
SODIUM ORTHOVANAD,Not Active,Not Active,Not Active,Not Active,Not Active,Not Active,Not Active,Not Active,–,–,Not Active,Not Active,Not Active,Not Active
